Measured values as given in patent US8017398B2, “Method for assaying protein-protein interaction” (Life Technologies Corporation, priority 2003, dated 2011).

Assays:
ADRB2 = biological target: T1, ADRB2 (Homo sapiens, UniProt P07550); experiment: chemiluminescence β-galactosidase reporter assay, ADRB2-tTA + ARRB2-TEV-NIa protease, clone 41 cells; format: cell-based; settings: ADRB2-tTA low efficiency cleavage site
T1 construct: to produce three, full length constructs encoding fusion proteins; expressed in transfected cells; host or cells: HEK-293T and clone 41 (HEK-293T derivative)

[1] = biological target: T2, human Type I Interferon Receptor (Homo sapiens, UniProt P17181+P48551); experiment: IFNAR1-GAL4-NF-κB + IFNAR2.2-TEV luciferase reporter assay, CHO-K1 cells; format: cell-based, hamster; settings: control pcDNA3 plasmid
T2 construct: expressed in transfected cells; host or cells: CHO-K1
T2 sequence (P17181 28-557): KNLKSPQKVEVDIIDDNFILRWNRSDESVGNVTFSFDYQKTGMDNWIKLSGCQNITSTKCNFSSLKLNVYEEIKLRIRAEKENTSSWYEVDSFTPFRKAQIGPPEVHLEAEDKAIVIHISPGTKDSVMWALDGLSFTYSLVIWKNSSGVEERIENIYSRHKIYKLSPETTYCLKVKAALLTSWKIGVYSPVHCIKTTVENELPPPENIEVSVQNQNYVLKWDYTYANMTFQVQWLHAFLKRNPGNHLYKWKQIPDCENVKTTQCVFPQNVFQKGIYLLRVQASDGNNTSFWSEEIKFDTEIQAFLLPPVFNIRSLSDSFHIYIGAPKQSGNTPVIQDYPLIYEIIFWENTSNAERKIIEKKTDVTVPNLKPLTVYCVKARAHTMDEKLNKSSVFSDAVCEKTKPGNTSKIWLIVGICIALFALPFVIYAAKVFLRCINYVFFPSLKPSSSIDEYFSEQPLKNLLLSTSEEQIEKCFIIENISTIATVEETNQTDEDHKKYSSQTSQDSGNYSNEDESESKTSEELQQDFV
T2 sequence (P48551 27-515): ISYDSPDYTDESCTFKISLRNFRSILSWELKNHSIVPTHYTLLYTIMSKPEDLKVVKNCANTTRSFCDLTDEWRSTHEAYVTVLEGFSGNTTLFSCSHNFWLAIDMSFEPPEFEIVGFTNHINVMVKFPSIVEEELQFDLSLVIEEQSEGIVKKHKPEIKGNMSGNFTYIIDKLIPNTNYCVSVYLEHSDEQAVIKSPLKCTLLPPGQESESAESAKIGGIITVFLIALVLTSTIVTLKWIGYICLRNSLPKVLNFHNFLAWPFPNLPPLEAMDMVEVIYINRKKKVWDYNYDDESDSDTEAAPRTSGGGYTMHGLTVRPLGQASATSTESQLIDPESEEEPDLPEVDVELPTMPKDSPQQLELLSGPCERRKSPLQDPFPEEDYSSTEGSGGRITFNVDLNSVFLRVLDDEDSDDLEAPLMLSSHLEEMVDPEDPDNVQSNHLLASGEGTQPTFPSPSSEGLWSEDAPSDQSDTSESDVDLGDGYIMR

T1 sequence (P07550 whole entry, the tested form may be a part): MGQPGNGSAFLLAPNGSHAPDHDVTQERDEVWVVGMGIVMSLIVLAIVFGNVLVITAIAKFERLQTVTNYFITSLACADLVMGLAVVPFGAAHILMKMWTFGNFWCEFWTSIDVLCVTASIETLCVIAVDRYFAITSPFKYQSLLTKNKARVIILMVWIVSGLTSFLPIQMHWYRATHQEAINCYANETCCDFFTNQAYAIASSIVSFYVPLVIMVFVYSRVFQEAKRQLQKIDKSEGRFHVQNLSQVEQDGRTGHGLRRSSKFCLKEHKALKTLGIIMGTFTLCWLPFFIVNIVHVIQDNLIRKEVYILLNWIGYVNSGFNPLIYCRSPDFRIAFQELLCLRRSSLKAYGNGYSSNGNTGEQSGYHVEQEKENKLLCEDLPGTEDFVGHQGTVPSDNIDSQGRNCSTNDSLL

Compound | induction of reporter gene activity by agonist of another GPCR (P2Y1, P2Y2) (ADRB2) | effect on reporter gene activity in cells transfected with the reporter and control plasmids [1]
Nc1ncnc2c1ncn2[C@@H]1O[C@H](COP(=O)(O)OP(=O)(O)OP(=O)(O)O)[C@@H](O)[C@H]1O [ATP] | Stimulation of another GPCR pathway was irrelevant | –
IFN-α | – | no effect
